# ChEMBL document CHEMBL4811256, “Synthesis and evaluation of multi-target-directed ligands with BACE-1 inhibitory and Nrf2 agonist activities as potential agents against Alzheimer's disease” (Eur J Med Chem, 2021)
# Active and inactive are the calls of the source. The rule behind the calls is not given here.
# Key:
# PC-12 [1] = test: Cytoprotective activity against 6-OHDA induced cell death in rat PC-12 cells assessed as increase in viable cells at 10 uM pretreated for 12 hrs followed by 6-OHDA challenge by MTT assay relative to control; type: functional
# PC-12 [2] = test: Protection against 6-OHDA-induced ROS accumulation in rat PC-12 cells assessed as intracellular ROS level by measuring mean fluorescence intensity pretreated for 12 hrs followed by 6-OHDA challenge by DCFH-DA staining based flow cytometry; type: functional, cell-based; conditions: dose 2.5-10 µM
# PC-12 [3] = test: Prevention of 6-OHDA-induced calcium overload in rat PC-12 cells assessed as reduction in intracellular free calcium pretreated with compound for 12 hrs followed by 6-OHDA challenge by Fluo-3AM based fluorescence assay; type: functional, cell-based; conditions: dose 2.5-10 µM
# PC-12 [4] = test: Protection against H2O2-induced apoptosis in rat PC-12 cells assessed as viable cells at 5 uM pretreated for 12 hrs followed by H2O2 challenge by annexin V FITC/propidium iodide staining based flow cytometry (reference value: 73.3 %); type: functional; conditions: read-out: Activity
# PC-12 [5] = test: Protection against H2O2-induced apoptosis in rat PC-12 cells assessed as necrotic cells at 5 uM pretreated for 12 hrs followed by H2O2 challenge by annexin V FITC/propidium iodide staining based flow cytometry (reference value: 3.7 %); type: functional
# PC-12 [6] = test: Protection against 6-OHDA-induced apoptosis in rat PC-12 cells assessed as viable cells at 2.5 uM pretreated for 12 hrs followed by 6-OHDA challenge by annexin V FITC/propidium iodide staining based flow cytometry (reference value: 76.7 %); type: functional; conditions: read-out: Activity
# PC-12 [7] = test: Protection against 6-OHDA-induced apoptosis in rat PC-12 cells assessed as early apoptotic cells at 2.5 uM pretreated for 12 hrs followed by 6-OHDA challenge by annexin V FITC/propidium iodide staining based flow cytometry (reference value: 2.4 %); type: functional
# PC-12 [8] = test: Protection against 6-OHDA-induced apoptosis in rat PC-12 cells assessed as late apoptotic cells at 2.5 uM pretreated for 12 hrs followed by 6-OHDA challenge by annexin V FITC/propidium iodide staining based flow cytometry (reference value: 17.3 %); type: functional
# PC-12 [9] = test: Protection against 6-OHDA-induced apoptosis in rat PC-12 cells assessed as early apoptotic cells at 5 uM pretreated for 12 hrs followed by 6-OHDA challenge by annexin V FITC/propidium iodide staining based flow cytometry (reference value: 2.4 %); type: functional
# PC-12 [10] = test: Protection against 6-OHDA-induced apoptosis in rat PC-12 cells assessed as necrotic cells at 5 uM pretreated for 12 hrs followed by 6-OHDA challenge by annexin V FITC/propidium iodide staining based flow cytometry (reference value: 3.7 %); type: functional
# PC-12 [11] = test: Protection against 6-OHDA-induced apoptosis in rat PC-12 cells assessed as necrotic cells at 10 uM pretreated for 12 hrs followed by 6-OHDA challenge by annexin V FITC/propidium iodide staining based flow cytometry (reference value: 3.7 %); type: functional
# PC-12 [12] = test: Cytoprotective activity against H2O2-induced oxidative stress in rat PC-12 cells assessed as decrease in cell death at 10 uM pretreated for 12 hrs followed by H2O2 challenge by MTT assay; type: functional, cell-based
# PC-12 [13] = test: Cytoprotective activity against 6-OHDA-induced oxidative stress in rat PC-12 cells assessed as decrease in cell death at 10 uM pretreated with brusatol for 1 hr followed by compound treatment for 12 hrs and subsequent 6-OHDA challenge by MTT assay; type: functional, cell-based
# PC-12 [14] = test: Activation of Keap1-Nrf2-ARE pathway in rat PC-12 assessed as upregulation of HO-1 protein expression measured after 12 hrs by Western blot analysis; conditions: filed as activator, dose 2.5-10 µM
# PC-12 [15] = test: Activation of Keap1-Nrf2-ARE pathway in rat PC-12 assessed as upregulation of GCLC protein expression measured after 12 hrs by Western blot analysis; conditions: filed as activator, dose 2.5-10 µM
# PC-12 [16] = test: Activation of Keap1-Nrf2-ARE pathway in rat PC-12 assessed as upregulation of TrxR1 protein expression at 10 uM measured after 6 to 24 hrs by Western blot analysis; conditions: filed as activator, time 6-24 hrs
# PC-12 [17] = test: Activation of Keap1-Nrf2-ARE pathway in rat PC-12 assessed as induction of accumulation of Nrf2 in nucleus at 10 uM measured after 3 hrs by Western blot analysis; conditions: filed as activator
# PC-12 [18] = test: Cytoprotective activity against H2O2-induced cell damage in rat PC-12 cells transfected with Nrf2 siRNA at 10 uM; type: functional, cell-based
# [19] = biological target: T1, Nuclear factor erythroid 2-related factor 2 (Mus musculus) (UniProt Q60795); test: Activation of Nrf2 in mouse BV-2 cells assessed as decrease in LPS-induced NO production pretreated with compound for 2 hrs followed by LPS stimulation and further incubated for 18 hrs by Griess reagent based assay; type: cell-based; conditions: filed as activator, dose 10.0 µM, time 20.0 hrs
# T1 sequence (whole entry): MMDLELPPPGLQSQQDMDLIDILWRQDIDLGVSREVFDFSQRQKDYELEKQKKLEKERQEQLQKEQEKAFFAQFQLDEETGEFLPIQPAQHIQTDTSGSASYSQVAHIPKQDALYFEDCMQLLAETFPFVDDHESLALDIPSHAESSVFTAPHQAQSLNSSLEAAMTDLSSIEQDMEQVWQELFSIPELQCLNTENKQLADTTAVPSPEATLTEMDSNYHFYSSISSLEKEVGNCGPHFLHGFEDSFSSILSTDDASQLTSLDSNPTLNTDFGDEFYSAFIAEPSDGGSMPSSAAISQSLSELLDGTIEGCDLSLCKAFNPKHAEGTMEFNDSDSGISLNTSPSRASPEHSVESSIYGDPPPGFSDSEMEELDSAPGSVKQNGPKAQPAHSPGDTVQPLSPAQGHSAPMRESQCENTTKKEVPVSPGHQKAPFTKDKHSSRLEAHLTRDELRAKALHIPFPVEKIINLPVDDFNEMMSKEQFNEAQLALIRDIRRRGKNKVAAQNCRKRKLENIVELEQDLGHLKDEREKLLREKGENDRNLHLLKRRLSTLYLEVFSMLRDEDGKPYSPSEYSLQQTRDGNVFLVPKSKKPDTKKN
# [20] = biological target: T1, Nuclear factor erythroid 2-related factor 2 (Mus musculus); test: Activation of Nrf2 in mouse BV-2 cells assessed as upregulation of HO-1 protein expression after 24 hrs by Western blot analysis; type: cell-based; conditions: filed as activator, dose 2.5-10 µM
# [21] = biological target: T1, Nuclear factor erythroid 2-related factor 2 (Mus musculus); test: Activation of Nrf2 in mouse BV-2 cells assessed as upregulation of Nrf2 protein expression after 24 hrs by Western blot analysis; type: cell-based; conditions: filed as activator, dose 2.5-10 µM
# [22] = biological target: T1, Nuclear factor erythroid 2-related factor 2 (Mus musculus); test: Activation of Nrf2 in mouse BV-2 cells assessed as upregulation of NQO1 protein expression after 24 hrs by Western blot analysis; type: cell-based; conditions: filed as activator, dose 2.5-10 µM
# [23] = biological target: T1, Nuclear factor erythroid 2-related factor 2 (Mus musculus); test: Activation of Nrf2 in mouse BV-2 cells assessed as upregulation of GCLM protein expression after 24 hrs by Western blot analysis; type: cell-based; conditions: filed as activator, dose 2.5-10 µM
# BV-2 = test: Antiinflammatory activity in mouse BV-2 cells transfected with Nrf2 siRNA assessed as inhibition of LPS-induced IL-6 production at 10 uM pretreated with compound for 2 hrs followed by LPS stimulation and further incubated for 18 hrs; type: functional, cell-based; conditions: time 20.0 hrs
structure (smiles),measurement,setting,value
CN1C(N)=N[C@](C)(c2cc(-n3[se]c4cc(F)ccc4c3=O)ccc2F)CS1(=O)=O,Activity,PC-12 [1],77%
same,Activity,PC-12 [2],Dose-Dependent Effect
same,Activity,PC-12 [3],Dose-Dependent Effect
same,viability at 5 µM,PC-12 [4],89%
same,Activity,PC-12 [5],1.3%
same,viability at 2.5 µM,PC-12 [6],79.8%
same,Activity,PC-12 [7],2%
same,Activity,PC-12 [8],14.9%
same,Activity,PC-12 [9],2.5%
same,Activity,PC-12 [10],2.3%
same,Activity,PC-12 [11],1.4%
same,Activity,PC-12 [12],Active
same,Activity,PC-12 [13],inactive
same,Activity,PC-12 [14],Active
same,Activity,PC-12 [15],Active
same,Activity,PC-12 [16],Active
same,Activity,PC-12 [17],Active
same,Activity,PC-12 [18],inactive
same,Activity,[19],Active
same,Activity,[20],Dose-Dependent Effect
same,Activity,[21],Dose-Dependent Effect
same,Activity,[22],Dose-Dependent Effect
same,Activity,[23],Dose-Dependent Effect
same,Activity,BV-2,inactive
